Source: patent US9797883B2, “Re-trafficking of herg reverses long QT syndrome 2 phenotype in human iPS-derived cardiomyocytes” (Singapore Health Services Pte Ltd, priority 2013, dated 2017)
“Also recorded” adds a separate entry of the source.

Experiments:
[1] = system: LQTS2-EBs; test: Microelectrode array (MEA) extracellular field potential recordings, LQTS2; assay type: cell-based, human; details: for cFPD (repolarization duration): human LQTS2 CMs
Description: (§1) To characterize the electrophysiological properties of the hiPS-CMs, a microelectrode array (MEA) recording system (Multichannel Systems, Reutlingen, Germany) was used as described previously. Briefly, contracting areas were micro-dissected and plated on MEA plates, allowed to adjust for 72 hrs before recording. All clusters were monitored for their beating abilities (beats/min) under the microscope during the 72 hr period. Clusters that maintained relatively uniform beating rates were then subjected to drugs. The MEA system allows simultaneous recordings from 60 titanium nitride-coated gold electrodes (30 μm) at high spatial (200 μm) and temporal (15 kHz) resolutions. All stock drugs were diluted in medium (2 mL) to assess the effects on the electrophysiological properties. […]. MEA clip along with the beating clusters was maintained on 37° C. throughout the duration of experiments. Care was also taken that all buffers including the medium utilized during all experimentation were pre-warmed to 37° C. All tested drugs were procured from Sigma-Aldrich, MO, USA. All extracellular recordings were performed for 180 seconds at baseline and at 5 minutes after drug application at 37° C. Data were recorded using MC Rack software (Multichannel System) and the recordings were used to determine the local field potential duration (FPD). FPD measurements were normalized (corrected FPD [cFPD]) to the beating rate of the contracting areas with the Bazzet correction formula: cFPD=FPD/√(RR interval).

[2] = system: control-EBs; test: Microelectrode array (MEA) extracellular field potential recordings, control; assay type: cell-based, human; details: 100 nM E-4031, control contracting EBs
Description: as §1, with “FPD measurements were normalized (corrected FPD [cFPD]) to the beating rate of the contracting areas with the Bazzet correction formula: cFPD=FPD/√(RR interval).” left out

[3] = atenolol 10 μM after isoproterenol, LQTS2-EBs

With `O=C([O-])CCCc1ccccc1.[Na+]` [4PBA, sodium 4-phenylbutyrate] the “cFPD (repolarization duration)” value ([1]; sodium 4-phenylbutyrate 400 μM) was “shortening the cFPD” and the “cFPD (repolarization duration)” value ([1]; sodium 4-phenylbutyrate 400 μM, listed as 4BPA) was “shortening of repolarization duration”.
`Cc1cccc(CCN2CCC(C(=O)c3ccc(NS(C)(=O)=O)cc3)CC2)n1` [E-4031] was tested, and the “beating rate-corrected field potential duration (cFPD)” value ([1]; 100 nM E-4031, LQTS2 contracting EBs) was “increased cFPDs significantly” and the “beating rate-corrected field potential duration (cFPD)” value [2] was “increased cFPDs significantly”.
For `Cc1ccc(NC(=O)C2(c3ccc4c(c3)OC(F)(F)O4)CC2)nc1-c1cccc(C(=O)O)c1` [VX-809, 3-[6-[[1-(2,2-difluoro-1,3-benzodioxol-5-yl)cyclopropanecarbonyl]amino]-3-methylpyridin-2-yl]benzoic acid], the “cFPD (repolarization duration)” value ([1]; VX-809 10 μM) was “shortening the cFPD; also recorded: shortening of repolarization duration”.
`CC(C)NCC(O)COc1ccc(CC(N)=O)cc1` (stereo not shown) [atenolol] was tested, and the beating frequencies [1, 3] was “reduced the beating frequencies” and the cFPD [1, 3] was “restored cFPDs”.
In the case of `CC(C)NCC(O)c1ccc(O)c(O)c1` (stereo not shown) [isoproterenol], the arrhythmogenic episodes ([1]; isoproterenol 1 uM, LQTS2-EBs) is reported as “aggravating arrhythmogenic episodes”, the beating frequencies ([1]; isoproterenol 1 uM, LQTS2-EBs) is reported as “increased beating frequencies” and the cFPD ([1]; isoproterenol 1 uM, LQTS2-EBs, n=15, LQTS2-baseline 0.657±0.07 s) is reported as 0.212 ± 0.02 s.
